{
  "source": "patent EP1640447A1",
  "about": "“BIOACTIVE PEPTIDE-PRODUCING STRAINS OF i ENTEROCOCCUS FAECALIS /i , BIOACTIVE PEPTIDES AND APPLICATIONS THEREOF” (Grupo Leche Pascual S.A., priority 2003, dated 2004)",
  "target": "T1, Angiotensin Converting Enzyme (ACE) (Oryctolagus cuniculus, UniProt P12822)",
  "T1 sequence (P12822 34-1310)": "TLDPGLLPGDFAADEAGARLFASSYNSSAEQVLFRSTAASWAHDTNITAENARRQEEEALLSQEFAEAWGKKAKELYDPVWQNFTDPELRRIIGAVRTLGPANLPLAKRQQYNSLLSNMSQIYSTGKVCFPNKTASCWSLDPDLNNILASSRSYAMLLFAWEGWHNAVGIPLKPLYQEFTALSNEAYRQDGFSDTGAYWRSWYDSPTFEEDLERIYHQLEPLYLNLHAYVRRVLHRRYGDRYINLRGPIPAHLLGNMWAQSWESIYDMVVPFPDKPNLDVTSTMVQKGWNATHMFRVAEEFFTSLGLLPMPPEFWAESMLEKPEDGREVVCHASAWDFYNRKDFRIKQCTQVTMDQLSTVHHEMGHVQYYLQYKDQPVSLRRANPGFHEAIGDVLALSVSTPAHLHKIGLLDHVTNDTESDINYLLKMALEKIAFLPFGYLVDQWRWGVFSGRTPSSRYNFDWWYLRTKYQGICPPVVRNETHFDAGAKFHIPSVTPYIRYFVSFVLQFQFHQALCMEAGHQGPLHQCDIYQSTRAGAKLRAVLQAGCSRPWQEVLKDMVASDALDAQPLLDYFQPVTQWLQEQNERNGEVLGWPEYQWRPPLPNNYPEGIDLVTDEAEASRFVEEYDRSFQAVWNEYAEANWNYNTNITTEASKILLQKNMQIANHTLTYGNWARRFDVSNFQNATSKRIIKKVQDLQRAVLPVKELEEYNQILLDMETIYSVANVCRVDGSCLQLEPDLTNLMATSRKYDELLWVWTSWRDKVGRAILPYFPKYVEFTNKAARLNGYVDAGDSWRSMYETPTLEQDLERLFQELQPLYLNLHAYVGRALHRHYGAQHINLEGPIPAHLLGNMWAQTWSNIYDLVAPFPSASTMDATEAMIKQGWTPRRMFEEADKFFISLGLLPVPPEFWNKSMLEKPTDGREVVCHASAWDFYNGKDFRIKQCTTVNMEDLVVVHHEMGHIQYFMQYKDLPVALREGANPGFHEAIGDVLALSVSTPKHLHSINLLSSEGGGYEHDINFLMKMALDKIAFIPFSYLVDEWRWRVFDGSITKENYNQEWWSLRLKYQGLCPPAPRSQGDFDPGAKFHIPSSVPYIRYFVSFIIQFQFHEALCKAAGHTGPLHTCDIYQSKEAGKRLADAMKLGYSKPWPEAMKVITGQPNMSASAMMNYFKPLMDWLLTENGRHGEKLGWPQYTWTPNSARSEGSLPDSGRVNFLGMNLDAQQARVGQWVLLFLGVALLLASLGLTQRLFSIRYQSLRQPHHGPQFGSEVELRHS",
  "assay": "Measurement of ACE inhibitor activity (ACEI activity), Hip-His-Leu substrate, hippuric acid read at 228 nm",
  "assay_type": "biochemical",
  "details": "chemically synthesized peptides, Table 4",
  "procedure": "The measurement of ACE activity was performed according to the method disclosed by Cushman and Cheung (Cushman DW, Cheung HS. 1971. Biochem Pharmacol 20:1637-1648) and subsequently modified by Nakamura (Nakamura Y, Yamamoto N, Sakai K et al. 1995. J Dairy Sci 78:777-783). This method is based on the use of Hippuryl-L-Histidyl-L-Leucine (Hip-His-Leu) as substrate given that the action of the ACE on such substrate produced the release of hippuric acid, easily quantifiable by spectrophotometry by absorbance reading at 228 nm (A228) after extraction thereof with ethyl acetate. If the sample to be tested is added to the reaction tube along with the ACE and the substrate, the ACEI activity of the sample tested can be determined. As is mentioned in Example 1.1, during the selection of bacteria the sample used to measure ACEI activity was the supernatant of the fermented milk, subjected to centrifugation at 20,000 x g for 10 minutes and subsequently diluted to half with distilled water.\nThe substrate solution was formed by 0.1 M sodium borate, 300 mM sodium chloride, 5 mM Hip-His-Leu (Sigma, St. Louis, MO), pH 8.3 at 37°C. The ACE enzyme solution (Sigma, St. Louis, MO) was adjusted to an activity of 0.1 U/mL.\nThe different reaction mixtures were incubated for 30 minutes at 37°C and subsequently 150 µL of 1 M hydrochloric acid were added in order to stop the reaction and subsequently 1,000 µL, of ethyl acetate in order to extract the hippuric acid. The resulting mixtures were vigorously stirred for 20 seconds and centrifuged at 1,500 x g for 10 minutes in order to separate and collect from each tube the upper phase (ethyl acetate). 750 µL of each upper phase were pipetted into individual tubes, which were introduced in a bath of boiling water under a fume extraction hood until the solvent evaporated. Once the ethyl acetate was eliminated 800 µL of distilled water were added to each tube to dissolve the dry residue smoothly and without stirring. Finally the content of each tube was transferred to quartz cuvettes to read their absorbance at 228 nm. The inhibition percentage (% Inhibition) was calculated by applying the following formula: %Inhibition = ((A)−(B))/((C)−(D)) [formula] wherein (A), (B), (C) and (D) correspond to the absorbances at 228 nm of the solutions indicated in Table 2.\nTo perform this fermentation example, E. faecalis CECT 5727, E. faecalis CECT 5728, E. faecalis CECT 5826 or E faecalis CECT 5827 may be used indistinctly. The substrate is skimmed bovine milk powder reconstituted in water at 10% and autoclaved ([…] for 20 minutes). First a starter liquid was made, inoculating the substrate with a culture loop such that the initial population was 10^5-10^7 CFU/mL and incubating for 24 hours. 3% by weight of this culture was used as inoculum for the second fermentation which was maintained for 48 hours. Both fermentations were carried out at 30°C. The fermenting process was stopped by pasteurizing the fermented milk [75°C for 1 minute] and the final pasteurized product was used to measure ACEI activity according to the protocol described in Example 1.2, although in this case the fermented milks were subjected to the pasteurization treatment mentioned before being centrifuged at 20,000 x g for 10 minutes. […] Therefore, the final reaction volume is always 160 µL [100 µL of the substrate solution, 20 µL of the ACE solution and 40 µL of the sample to be tested (supernatant at the corresponding dilution with distilled water)].",
  "note": "Peptide text beside a SMILES is read from it.",
  "data": [
    {"smiles": "CC(C)C[C@H](N)C(=O)N[C@H](C(=O)N[C@@H](CCC(N)=O)C(=O)N[C@H](C(=O)N1CCC[C@H]1C(=O)N[C@H](C(=O)N[C@H](C(=O)N[C@H](C(=O)N1CCC[C@H]1C(=O)N1CCC[C@H]1C(=O)N[C@@H](Cc1ccccc1)C(=O)O)C(C)C)C(C)C)C(C)C)[C@@H](C)O)[C@@H](C)O", "note": "[SEQ. ID. NO: 6, LTQTPVVVPPF] (H-LTQTPVVVPPF-OH)", "values": [
      {"measurement": "IC50", "value": "> 700", "unit": "µM"}
    ]},
    {"smiles": "CC(C)C[C@H](NC(=O)[C@@H]1CCCN1C(=O)[C@H](CC(C)C)NC(=O)[C@H](Cc1cnc[nH]1)NC(=O)[C@@H](N)CC(C)C)C(=O)N1CCC[C@H]1C(=O)O", "note": "[SEQ. ID. NO: 1, LHLPLP] (H-LHLPLP-OH)", "values": [
      {"measurement": "IC50", "value": 5.4, "unit": "µM"}
    ]},
    {"smiles": "CC[C@H](C)[C@H](NC(=O)[C@@H](NC(=O)[C@@H]1CCCN1C(=O)[C@H](Cc1ccccc1)NC(=O)[C@@H]1CCCN1C(=O)CNC(=O)[C@H](CCCNC(=N)N)NC(=O)[C@@H](NC(=O)[C@@H]1CCCN1C(=O)CNC(=O)[C@H](CC(C)C)NC(=O)[C@@H](N)C(C)C)C(C)C)[C@@H](C)CC)C(=O)N[C@H](C(=O)O)C(C)C", "note": "[SEQ. ID. NO: 7, VLGPVRGPFPIIV] (H-VLGPVRGPFPIIV-OH)", "values": [
      {"measurement": "IC50", "value": "> 700", "unit": "µM"}
    ]},
    {"smiles": "CC[C@H](C)[C@H](NC(=O)[C@@H]1CCCN1C(=O)CNC(=O)[C@@H]1CCCN1C(=O)[C@H](Cc1ccccc1)NC(=O)[C@@H]1CCCN1C(=O)[C@H](Cc1ccc(O)cc1)NC(=O)[C@@H](NC(=O)[C@@H](N)CC(C)C)C(C)C)C(=O)N1CCC[C@H]1C(=O)N[C@@H](CC(N)=O)C(=O)N[C@@H](CO)C(=O)N[C@@H](CC(C)C)C(=O)N1CCC[C@H]1C(=O)N[C@@H](CCC(N)=O)C(=O)N[C@@H](CC(N)=O)C(=O)N[C@H](C(=O)N1CCC[C@H]1C(=O)N1CCC[C@H]1C(=O)O)[C@@H](C)CC", "note": "[SEQ. ID. NO: 8, LVYPFPGPIPNSLPQNIPP] (H-LVYPFPGPIPNSLPQNIPP-OH)", "values": [
      {"measurement": "IC50", "value": 5.3, "unit": "µM"}
    ]},
    {"smiles": "CC(C)[C@H](N)C(=O)N[C@H](C(=O)N[C@H](C(=O)N1CCC[C@H]1C(=O)N1CCC[C@H]1C(=O)N[C@@H](Cc1ccccc1)C(=O)O)C(C)C)C(C)C", "note": "[SEQ. ID. NO: 5, VVVPPF] (H-VVVPPF-OH)", "values": [
      {"measurement": "IC50", "value": "> 700", "unit": "µM"}
    ]},
    {"smiles": "CC(C)C[C@H](NC(=O)[C@@H](N)C(C)C)C(=O)NCC(=O)N1CCC[C@H]1C(=O)N[C@H](C(=O)N[C@@H](CCCNC(=N)N)C(=O)NCC(=O)N1CCC[C@H]1C(=O)N[C@@H](Cc1ccccc1)C(=O)N1CCC[C@H]1C(=O)O)C(C)C", "note": "[SEQ. ID. NO: 2, VLGPVRGPFP] (H-VLGPVRGPFP-OH)", "values": [
      {"measurement": "IC50", "value": 137, "unit": "µM"}
    ]},
    {"smiles": "CC(C)C[C@H](NC(=O)[C@@H]1CCCN1C(=O)[C@H](CC(C)C)NC(=O)[C@@H]1CCCN1C(=O)[C@H](CC(C)C)NC(=O)[C@H](Cc1c[nH]cn1)NC(=O)[C@@H](N)CC(C)C)C(=O)O", "note": "[SEQ. ID. NO: 3, LHLPLPL] (H-LHLPLPL-OH)", "values": [
      {"measurement": "IC50", "value": 433, "unit": "µM"}
    ]},
    {"smiles": "CC[C@H](C)[C@H](NC(=O)[C@@H](NC(=O)[C@@H]1CCCN1C(=O)[C@H](Cc1ccccc1)NC(=O)[C@@H]1CCCN1C(=O)CNC(=O)[C@H](CCCNC(=N)N)NC(=O)[C@@H](N)C(C)C)[C@@H](C)CC)C(=O)N[C@H](C(=O)O)C(C)C", "note": "[SEQ. ID. NO: 4, VRGPFPIIV] (H-VRGPFPIIV-OH)", "values": [
      {"measurement": "IC50", "value": 630, "unit": "µM"}
    ]}
  ]
}
